Converted amounts (≈) assume the structure as drawn. One block for each molecule: values may come before it.
Key:
[1] = tested on: Human immunodeficiency virus 1; test: Antiviral activity against wild type HIV1 3B infected in human TZM-bl cells after 4 days by ELISA; format: functional, organism-based; details: Human immunodeficiency virus 1, 3B, 96 h
TZM [2] = test: Cytotoxicity against human TZM-bl cells; format: functional
[3] = Selectivity index, ratio of CC50 for human TZM-bl cells to EC50 for wild type HIV1 3B infected in human TZM-bl cells; format: toxicity, cell-based; details: read-out: Selectivity Index
[4] = tested on: Human immunodeficiency virus 1; test: Antiviral activity against HIV1 3B infected in human C8166 cells; format: functional, organism-based; details: Human immunodeficiency virus 1, 3B, C8166
[5] = tested on: Human immunodeficiency virus 1; test: Antiviral activity against wild type HIV1 3B infected in human TZM-bl cells assessed as viral infection at 50 ug/ml after 1 hr relative to control; format: functional; details: Human immunodeficiency virus 1, 3B
TZM [6] = test: Cytotoxicity against human TZM-bl cells assessed as reduction in cell viability after 4 hrs by MTT assay; format: functional
[7] = tested on: Human immunodeficiency virus 1; test: Antiviral activity against HIV1; format: functional, organism-based
[8] = tested on: Human immunodeficiency virus 1; test: Antiviral activity against HIV1 3B after 48 hrs […]; format: functional, organism-based; details: Human immunodeficiency virus 1, 3B
[9] = tested on: Human immunodeficiency virus 2; test: Antiviral activity against HIV2 ROD after 48 hrs […]; format: functional, organism-based; details: Human immunodeficiency virus 2, ROD
[10] = biological target: Human immunodeficiency virus type 1 reverse transcriptase (Human immunodeficiency virus 1, UniProt Q72547); test: Inhibition of HIV-1 reverse transcriptase after 1 hr by ELISA
C8166 = test: Cytotoxicity against human C8166 cells assessed as reduction in cell viability; format: functional, cell-based
[11] = Selectivity index, ratio of CC50 for human C8166 cells to EC50 for HIV1 3B infected in human C8166 cells; format: toxicity, cell-based; details: read-out: Selectivity Index
[12] = tested on: Human immunodeficiency virus 1; test: Antiviral activity against wild type HIV1 3B infected in human MT4 cells using [3H]dGTP by radio-labelled binding assay; format: functional, organism-based; details: Human immunodeficiency virus 1, 3B
[13] = tested on: Human immunodeficiency virus 1; test: Antiviral activity against HIV1 3B; format: functional, organism-based; details: Human immunodeficiency virus 1, 3B
[14] = tested on: Human immunodeficiency virus 2; test: Antiviral activity against HIV2 ROD; format: functional, organism-based; details: Human immunodeficiency virus 2, ROD
[15] = biological target: T1, Human immunodeficiency virus type 2 integrase (Human immunodeficiency virus 2, UniProt P89582); test: Inhibition of wild type HIV-2 ROD9 integrase
T1 sequence (P89582 whole entry): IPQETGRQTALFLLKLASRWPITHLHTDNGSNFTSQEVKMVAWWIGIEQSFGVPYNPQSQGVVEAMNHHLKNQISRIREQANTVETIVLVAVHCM

[16] = Inhibition of HIV-2 ROD9 integrase E92Q mutant; parameters: species or system Human immunodeficiency virus 2
[17] = Inhibition of HIV-2 ROD9 integrase T97A mutant; parameters: species or system Human immunodeficiency virus 2
[18] = Inhibition of HIV-2 ROD9 integrase G140S mutant; parameters: species or system Human immunodeficiency virus 2
[19] = Inhibition of HIV-2 ROD9 integrase Y143C mutant; parameters: species or system Human immunodeficiency virus 2
[20] = Inhibition of HIV-2 ROD9 integrase Q148H mutant; parameters: species or system Human immunodeficiency virus 2
[21] = Inhibition of HIV-2 ROD9 integrase Q148R mutant; parameters: species or system Human immunodeficiency virus 2
[22] = Inhibition of HIV-2 ROD9 integrase N155H mutant; parameters: species or system Human immunodeficiency virus 2
[23] = Inhibition of HIV-2 ROD9 integrase E92Q/Y143C double mutant; parameters: species or system Human immunodeficiency virus 2
[24] = Inhibition of HIV-2 ROD9 integrase T97A/Y143C double mutant; parameters: species or system Human immunodeficiency virus 2
[25] = Inhibition of HIV-2 ROD9 integrase G140S/Q148R double mutant; parameters: species or system Human immunodeficiency virus 2
[26] = Inhibition of HIV-2 ROD9 integrase E92Q/N155H double mutant; parameters: species or system Human immunodeficiency virus 2
[27] = Inhibition of HIV-2 ROD9 integrase T97A/N155H double mutant; parameters: species or system Human immunodeficiency virus 2

Compound: CC1OC(=O)c2ccccc2C1(Cl)c1ccc(C#Cc2ccccc2)cc1 (configuration not stated)
EC50 [1]: 242 µM
CC50 (TZM [2]): 215 µM
selectivity ratio [3]: 0.9

Compound: NC1=CNC(=O)/C1=N/Nc1ccc([N+](=O)[O-])cc1
inhibition at 50 µg/mL [5]: 91%
Activity (TZM [6]): 80%

Compound: Cc1ccccc1NC(=O)CSC1[Se]N=NC1c1ccc(Cl)c(Cl)c1 (configuration not stated)
EC50 [8]: 5.56 µM
EC50 [9]: > 22.3 µM

Compound: O=C(CSC1[Se]N=NC1c1ccc(Cl)c(Cl)c1)Nc1ccccc1Cl (configuration not stated)
EC50 [8]: > 23.4 µM
EC50 [9]: > 23.4 µM

Compound: COc1ccc2c(c1)CCCN2CCC(=O)N1CCN(c2ccccc2)CC1
IC50 [10]: 24.2 µM
IC50 (C8166): 83.2 µg/mL (≈ 219 µM)
selectivity ratio [11]: 5.9

Compound: Cc1ccc(NC(=O)CSC2[Se]N=NC2c2ccc(Cl)c(Cl)c2)cc1 (configuration not stated)
EC50 [8]: 6.65 µM
EC50 [9]: > 13.3 µM

Compound: CC(=O)c1ccc(NC(=O)CSC2[Se]N=NC2c2ccc(Cl)c(Cl)c2)c(Br)c1 (configuration not stated)
EC50 [8]: 2.45 µM
EC50 [9]: > 18.9 µM

Compound: O=C(CSC1[Se]N=NC1c1ccc(Cl)c(Cl)c1)Nc1ccccc1F (configuration not stated)
EC50 [8]: > 26.9 µM
EC50 [9]: > 26.9 µM

Compound: Cc1ccc(NC(=O)CSC2[Se]N=NC2c2ccc(Cl)c(Cl)c2)c([N+](=O)[O-])c1 (configuration not stated)
EC50 [8]: 5.42 µM
EC50 [9]: > 26.3 µM

Compound: NC1=CNC(=O)/C1=N/Nc1cccc(Cl)c1
inhibition at 50 µg/mL [5]: 93%
Activity (TZM [6]): 52%

Compound: Cc1cccc(N2C(=O)CSC2c2c(Cl)cccc2Cl)n1 (configuration not stated)
IC50 [12]: 0.044 µM

Compound: Cc1cccc(N2C(=O)CSC2c2c(F)cccc2Cl)n1 (configuration not stated)
IC50 [12]: 0.053 µM

Compound: Cn1cc(C(=O)O)c(=O)c2ccc(N3CCN(c4cccc(C(F)(F)F)c4)CC3)nc21
EC50 [13]: > 0.41 µg/mL
EC50 [14]: > 0.41 µg/mL

Compound: Cn1cc(C(=O)O)c(=O)c2ccc(N3CCN(c4nccs4)CC3)nc21
EC50 [13]: 3.15 µg/mL (≈ 8.48 µM)
EC50 [14]: 0.922 µg/mL (≈ 2.48 µM)

Compound: C[C@@H]1CCO[C@H]2Cn3cc(C(=O)NCc4ccc(F)cc4F)c(=O)c(O)c3C(=O)N12 [DOLUTEGRAVIR]
EC50 [15]: 0.0023 µM
EC50 [16]: 0.0077 µM
EC50 [17]: 0.0032 µM
EC50 [18]: 0.0032 µM
EC50 [19]: 0.0077 µM
EC50 [20]: 0.0035 µM
EC50 [21]: 0.0057 µM
EC50 [22]: 0.005 µM
EC50 [23]: 0.015 µM
EC50 [24]: > 10 µM
EC50 [25]: 0.108 µM
EC50 [26]: 0.025 µM
EC50 [27]: 0.027 µM

Compound: Cc1cn([C@H]2C[C@H](N=[N+]=[N-])[C@@H](CO)O2)c(=O)[nH]c1=O [ZIDOVUDINE]
IC50 (C8166): 1570 µg/mL (≈ 5860 µM)

Now from value to molecule, other results behind:

IC50 [4]: 0.76 µM
Compound: O=C(CC1(O)C(=O)Nc2ccc(Cl)cc21)c1ccccc1Cl (configuration not stated)

EC50 [7]: 0.86 µM
Compound: O=C(N[C@H]1C(=O)Nc2ccccc2C2CCCN21)OCc1ccccc1 (some centres not stated)

EC50 [1]: 29.3 µM
Compound: CC1OC(=O)c2ccccc2C1(Cl)c1ccccc1 (configuration not stated)
CC50 (TZM [2]): 293 µM
selectivity ratio [3]: 10

IC50 [10]: 12.5 µM
Compound: COc1ccc2c(c1)CCCN2CCC(=O)N1CCN(c2ccccc2C)CC1
IC50 (C8166): 114 µg/mL (≈ 291 µM)
selectivity ratio [11]: 24.2

IC50 [10]: 0.27 µM
Compound: COc1ccccc1C(=O)CC1(O)C(=O)Nc2ccc(Cl)cc21 (configuration not stated)

EC50 [1]: 314 µM
Compound: CCCC1OC(=O)c2ccccc2C1(Cl)c1ccc(F)cc1 (configuration not stated)
CC50 (TZM [2]): 251 µM
selectivity ratio [3]: 0.8

EC50 [7]: 14 µM
Compound: Cn1ccc2c1S(=O)(=O)c1ccccc1NC2=O

EC50 [1]: 126 µM
Compound: CCC1OC(=O)c2ccccc2C1(Cl)c1ccc(F)cc1 (configuration not stated)
CC50 (TZM [2]): 263 µM
selectivity ratio [3]: 2.1

EC50 [13]: 0.62 µg/mL (≈ 1.7 µM)
EC50 [14]: 0.55 µg/mL (≈ 1.51 µM)
Compound: Cn1cc(C(=O)O)c(=O)c2ccc(N3CCN(c4ccccn4)CC3)nc21

EC50 [13]: 0.03 µg/mL (≈ 0.0712 µM)
EC50 [14]: 0.02 µg/mL (≈ 0.0475 µM)
Compound: Cn1cc(C(=O)O)c(=O)c2ccc(N3CCN(c4nc5ccccc5s4)CC3)nc21
